Experimental data from ChEMBL document CHEMBL3124868, “Design, synthesis, pharmacological evaluation, QSAR analysis, molecular modeling and ADMET of novel donepezil-indolyl hybrids as multipotent cholinesterase/monoamine oxidase inhibitors for the potential treatment of Alzheimer's disease” (Eur J Med Chem, 2014).

Assays:
[1] = biological target: T1, Amine oxidase [flavin-containing] B (Homo sapiens, UniProt P27338); test: Inhibition of human recombinant MAO-B using tyramine as substrate preincubated for 30 mins followed by substrate addition measured for 1 hr by fluorometric assay
T1 sequence (P27338 whole entry): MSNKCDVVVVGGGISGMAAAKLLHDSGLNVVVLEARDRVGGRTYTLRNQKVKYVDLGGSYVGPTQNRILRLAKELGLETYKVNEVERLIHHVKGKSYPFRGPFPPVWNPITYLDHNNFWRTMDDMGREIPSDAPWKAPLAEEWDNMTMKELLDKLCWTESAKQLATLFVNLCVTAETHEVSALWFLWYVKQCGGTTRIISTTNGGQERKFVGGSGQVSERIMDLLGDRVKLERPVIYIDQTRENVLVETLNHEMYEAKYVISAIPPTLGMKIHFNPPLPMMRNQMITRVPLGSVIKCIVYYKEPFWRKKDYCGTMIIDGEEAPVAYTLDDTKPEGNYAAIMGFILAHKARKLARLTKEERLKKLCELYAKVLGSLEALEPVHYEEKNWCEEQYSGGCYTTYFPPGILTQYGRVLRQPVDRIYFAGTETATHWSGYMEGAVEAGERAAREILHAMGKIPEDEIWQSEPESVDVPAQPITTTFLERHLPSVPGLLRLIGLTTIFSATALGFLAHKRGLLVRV

[2] = biological target: T2, Amine oxidase [flavin-containing] A (Homo sapiens, UniProt P21397); test: Inhibition of human recombinant MAO-A using tyramine as substrate preincubated for 30 mins followed by substrate addition measured for 1 hr by fluorometric assay
T2 sequence (P21397 whole entry): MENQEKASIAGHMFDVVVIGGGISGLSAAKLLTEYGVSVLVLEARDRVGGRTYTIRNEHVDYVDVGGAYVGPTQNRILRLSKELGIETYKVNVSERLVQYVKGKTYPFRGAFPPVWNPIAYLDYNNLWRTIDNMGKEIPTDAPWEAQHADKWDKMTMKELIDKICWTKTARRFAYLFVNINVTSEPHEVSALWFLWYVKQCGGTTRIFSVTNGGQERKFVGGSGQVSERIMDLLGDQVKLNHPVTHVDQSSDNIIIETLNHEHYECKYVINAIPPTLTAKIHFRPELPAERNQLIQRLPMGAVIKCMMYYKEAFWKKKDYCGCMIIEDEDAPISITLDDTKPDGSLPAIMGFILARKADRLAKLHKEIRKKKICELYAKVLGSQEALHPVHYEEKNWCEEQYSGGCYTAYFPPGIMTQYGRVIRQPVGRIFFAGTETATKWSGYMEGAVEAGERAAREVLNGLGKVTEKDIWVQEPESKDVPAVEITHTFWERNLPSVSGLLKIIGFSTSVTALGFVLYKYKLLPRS

[3] = Selectivity ratio of IC50 for equine serum BuChE to IC50 for electric eel AChE
Cholinesterase = Cholinesterase (Equus caballus, UniProt P81908); test: Inhibition of equine serum BuChE using butyrylthiocholine iodide as substrate preincubated for 20 mins followed by substrate addition measured after 25 mins by Ellman's method
Acetylcholinesterase = Acetylcholinesterase (Electrophorus electricus, UniProt O42275); test: Inhibition of electric eel AChE using acetylthiocholine iodide as substrate preincubated for 20 mins followed by substrate addition measured after 5 mins by Ellman's method
Homo sapiens = species: Homo sapiens; test: Selectivity ratio of IC50 for human recombinant MAO-B to IC50 for human recombinant MAO-A

Sequence of Acetylcholinesterase (O42275 whole entry): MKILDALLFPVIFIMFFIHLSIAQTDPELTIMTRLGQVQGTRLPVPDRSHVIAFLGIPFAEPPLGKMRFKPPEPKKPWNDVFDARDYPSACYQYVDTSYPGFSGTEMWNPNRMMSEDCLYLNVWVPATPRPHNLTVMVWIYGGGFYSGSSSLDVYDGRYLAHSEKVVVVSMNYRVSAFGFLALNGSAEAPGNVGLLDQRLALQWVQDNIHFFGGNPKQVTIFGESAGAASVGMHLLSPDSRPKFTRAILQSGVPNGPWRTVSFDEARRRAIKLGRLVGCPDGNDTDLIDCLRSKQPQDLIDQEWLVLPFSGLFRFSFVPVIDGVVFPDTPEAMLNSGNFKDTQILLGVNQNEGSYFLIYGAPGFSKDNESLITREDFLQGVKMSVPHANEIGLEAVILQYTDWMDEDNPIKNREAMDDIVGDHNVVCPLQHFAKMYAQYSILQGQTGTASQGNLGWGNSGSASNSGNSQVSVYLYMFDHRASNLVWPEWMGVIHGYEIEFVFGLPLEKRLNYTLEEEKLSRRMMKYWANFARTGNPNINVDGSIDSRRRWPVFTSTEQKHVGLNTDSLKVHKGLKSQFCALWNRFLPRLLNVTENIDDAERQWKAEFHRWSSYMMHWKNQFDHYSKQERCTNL
Sequence of Cholinesterase (P81908 whole entry): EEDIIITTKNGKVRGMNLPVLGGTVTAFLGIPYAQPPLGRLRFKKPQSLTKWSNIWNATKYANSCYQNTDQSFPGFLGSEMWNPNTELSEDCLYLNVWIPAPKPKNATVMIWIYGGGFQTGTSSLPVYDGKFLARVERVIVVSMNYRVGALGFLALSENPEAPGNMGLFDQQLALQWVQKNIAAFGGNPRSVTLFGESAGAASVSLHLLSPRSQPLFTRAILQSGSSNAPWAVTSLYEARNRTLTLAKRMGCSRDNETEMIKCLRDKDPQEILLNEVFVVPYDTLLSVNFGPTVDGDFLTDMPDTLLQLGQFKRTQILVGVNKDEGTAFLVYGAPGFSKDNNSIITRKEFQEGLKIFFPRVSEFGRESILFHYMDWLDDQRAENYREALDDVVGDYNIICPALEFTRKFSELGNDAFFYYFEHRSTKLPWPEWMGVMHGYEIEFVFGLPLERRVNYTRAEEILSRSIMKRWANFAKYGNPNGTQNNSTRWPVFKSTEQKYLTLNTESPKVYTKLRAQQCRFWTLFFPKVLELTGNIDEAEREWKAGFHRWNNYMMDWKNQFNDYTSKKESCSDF

SMILES	IC50 [1] [µM]	IC50 ([2]; read-out: IC50) [µM]	Ratio IC50 [3]	IC50 (Cholinesterase) [µM]	IC50 (Acetylcholinesterase) [nM]	Ratio IC50 (Homo sapiens)	IC50 ([2]; read-out: pIC50 (converted)) [µM]
C#CCNC(=O)c1cc2cc(OCCCC3CCN(Cc4ccccc4)CC3)ccc2n1C	> 100	> 100	> 770	> 100	130	> 1	–
Cn1c(C(=O)NCc2ccccc2)cc2cc(OCCCC3CCN(Cc4ccccc4)CC3)ccc21	> 100	> 100	> 1	> 100	> 100000	> 1	–
Cn1c(CNCc2ccccc2)cc2cc(OCCCC3CCN(Cc4ccccc4)CC3)ccc21	> 100	> 100	2	0.29	140	> 1	100
Cn1c(CO)cc2cc(OCCCC3CCN(Cc4ccccc4)CC3)ccc21	> 100	4.26	> 416	> 100	240	> 23	–
Cn1c(C(=O)N2CCOCC2)cc2cc(OCCCC3CCN(Cc4ccccc4)CC3)ccc21	> 100	> 100	> 370	> 100	270	> 1	–
COc1ccc2c(c1)cc(C(=O)NCc1ccccc1)n2C	> 100	> 100	> 1	> 100	> 100000	> 1	–
Cn1c(C(=O)Nc2ccccc2)cc2cc(OCCCC3CCN(Cc4ccccc4)CC3)ccc21	> 100	> 100	> 1	> 100	> 100000	> 1	–
Cn1c(CNc2ccccc2)cc2cc(OCCCC3CCN(Cc4ccccc4)CC3)ccc21	> 100	> 100	10	0.85	84	> 1	100
Cn1c(CN2CCOCC2)cc2cc(OCCCC3CCN(Cc4ccccc4)CC3)ccc21	> 100	4.4	7.9	0.79	100	> 22.7	–
CCOC(=O)c1cc2cc(OCCCC3CCN(Cc4ccccc4)CC3)ccc2n1C	> 100	1.53	> 370	> 100	270	> 65	–
COc1ccc2c(c1)cc(CNCc1ccccc1)n2C	> 100	> 100	1.5	22.9	15200	> 1	100
C#CCNCc1cc2cc(OCCCC3CCN(Cc4ccccc4)CC3)ccc2n1C	0.15	0.0055	4.4	0.83	190	27.3	–
Cn1c(C(=O)O)cc2cc(OCCCC3CCN(Cc4ccccc4)CC3)ccc21	> 100	> 100	> 250	> 100	400	> 1	–
C#CCN(C)Cc1cc2cc(OCCCC3CCN(Cc4ccccc4)CC3)ccc2n1C	–	0.0042	–	–	–	–	–
C=CCNCc1cc2cc(OCCCC3CCN(Cc4ccccc4)CC3)ccc2n1C	15.3	0.98	3.3	0.46	140	15.6	–
